Data set [1] has as its system tubulin. As to conditions: cited from earlier work.
For data set [2], the system named is HeLa cells. Details: method as in PMID 27363663. The settings on record: HeLa cells ref 15; cited from earlier work.
In data set [3] the test system is HeLa cells. Also on record: method as in PMID 27363663. As to conditions: HeLa cells ref 15; cited from earlier work. The source holds these as a separate data set.
In data set [4] the test system is A2780 cell line. Details: method as in PMID 27263437. As to conditions: described earlier ref 16; cited from earlier work.
The test system of data set [5] is MCF-7 cell line. Details: method as in PMID 27263437. The settings on record: described earlier ref 16; cited from earlier work.
Data set [6] concerns tested cell lines. Details: method as in PMID 27263437. As to conditions: described earlier ref 16; cited from earlier work.
For data set [7], the target named is 17β-hydroxysteroid dehydrogenase 1, 17β-HSD1. As to conditions: read-out: 17β-HSD1 inhibition IC50; cited from earlier work.
Data set [8] has as its system steroid sulfatase, STS. Details: method as in PMID 30230387. As to conditions: cited from earlier work.
The subject of data set [9] is OATP2B1. Also on record: method as in PMID 30498534. The settings on record: read-out: OATP2B1 inhibition IC50; cited from earlier work.
The test system of data set [10] is MCF-7 cells. The data set can be described thus: MTT antiproliferative assay, MCF-7. The data set is classed as cell-based, human. As to conditions: Homo sapiens, MCF7, MTT. The procedure:
(§1) The antiproliferative properties of the newly synthesised triazoles (11a,b–15a,b) were determined on a panel of human adherent cancer cell lines of gynaecological origin. MCF-7 and MDA-MB-231 were isolated from breast cancers differing in biochemical background, while A2780 cells were isolated from ovarian cancer. The cancer selectivity of compound 12a was tested on the non-cancerous mouse embryo fibroblast cell line NIH/3T3. All cell lines were purchased from European Collection of Cell Cultures (ECCAC, Salisbury, UK). Cells were cultivated in minimal essential medium supplemented with 10% foetal bovine serum, 1% non-essential amino acids and an antibiotic–antimycotic mixture. All media and supplements were obtained from Lonza Group Ltd., Basel, Switzerland. Near-confluent cancer cells were seeded onto a 96-well microplate (5000 cells/well) and, after overnight standing, 200 µL new medium, containing the tested compounds at 10 and 30 µM, was added. After incubation for 72 h at 37 °C in humidified air containing 5% CO2, the living cells were assayed by the addition of 20 µL of 5 mg/ml 3-(4,5-dimethylthiazol-2-yl)-2,5-diphenyltetrazolium bromide (MTT) solution. MTT was converted by intact mitochondrial reductase and precipitated as purple crystals during a 4-h contact period. The medium was next removed and the precipitated formazan crystals were dissolved in 100 µL of DMSO during a 60-min period of shaking at 37 ^оC.
(§2) Finally, the reduced MTT was assayed at 545 nm, using a microplate reader utilising wells with untreated cells serving as control. […] All in vitro experiments were carried out on two microplates with at least five parallel wells. Stock solutions of the tested substances (10 mM) were prepared in DMSO. […] Cisplatin (Ebewe Pharma GmbH, Unterach, Austria) was used as positive control.

Data set [11] relates to MDA-MB-231 cells. The data set can be described thus: MTT antiproliferative assay, MDA-MB-231. As to conditions: Homo sapiens, MTT. It is filed as cell-based, human. The procedure:
as §1, §2

The test system of data set [12] is non-cancerous mouse embryo fibroblast cell line NIH/3T3. Briefly: MTT assay for cancer selectivity, NIH/3T3. The data set is classed as cell-based. The procedure:
as §1, §2

In data set [13] the test system is tubulin. The data set can be described thus: cell-free in vitro tubulin polymerisation assay. The data set is classed as biochemical. The settings on record: vs untreated control. The procedure: The effect of brominated triazole (12a) on tubulin polymerisation was tested with the HTS-Tubulin Polymerisation Assay Biochem Kit (Bio-Kasztel Ltd., Budapest, Hungary) according to the manufacturer’s recommendations. Briefly, 10 µl of a 0.125 or 0.25 mM solution of the test compound (12a) was placed on a prewarmed (37 °C), UV-transparent microplate. About 10 µl 10 µM paclitaxel and 10 µl General Tubulin Buffer were used as positive and negative control, respectively. 100 µl 3.0 mg/ml tubulin in 80 mM PIPES pH 6.9, 2 mM MgCl2, 0.5 mM EGTA, 1 mM GTP was added to each sample, and the microplate was immediately placed into a prewarmed (37 °C) UV-spectrophotometer (SpectoStarNano, BMG Labtech, Ortenberg, Germany) to start the recording reaction. A 60-min kinetic measurement protocol was applied to determine the absorbance of the reaction solution per minute at 340 nm. For the evaluation of the experimental data, the maximum reaction rate (Vmax: Δabsorbance/min) was calculated. Moving averages of absorbances determined at three consecutive timepoints were calculated and the highest difference between two succeeding moving averages was taken as the Vmax of the tested compound in the tubulin polymerisation reaction. Each sample was prepared in two parallels and the measurements were repeated twice. For statistical evaluation, Vmax data were analysed by the one-way ANOVA test with the Newmann–Keuls post-test by using Prism 4.01 software (GraphPad Software, San Diego, CA).

Data set [14] has as its system A2780 cells. Briefly: MTT antiproliferative assay, A2780. It is filed as cell-based, human. As to conditions: Homo sapiens, MTT. The procedure:
as §1, §2

Turning to `COc1cc2c(cc1O)CC[C@@H]1[C@@H]2CC[C@]2(C)[C@@H](O)CC[C@@H]12` [2-methoxyestradiol], the “effect on tubulin polymerisation” value in data set [1] was “inhibit tubulin polymerisation”.

Turning to `CCC[C@H]1[C@@H]2CCc3cc(OCc4cn(Cc5ccccc5)nn4)ccc3[C@H]2CC[C@]1(C)CO` [Compound 3], the “maximum rate of microtubule formation” value in [1] is “significantly increases the maximum rate of microtubule formation”. Further, the migration and invasion result in data set [2] was “inhibits the migration and invasion”. Further, in data set [3], the cell cycle effect result was “cell cycle arrest at G2/M”.

In the case of `C[C@@]12CC[C@@H]3c4ccc(OCc5cn(Cc6ccccc6)nn5)cc4CC[C@H]3[C@@H]1CCC2=O` [Compound 4a, 3-[{1-benzyl-1H-1,2,3-triazol-4-yl}methoxy]-13α-estra-1,3,5(10)-trien-17-one], the IC50 in [4] and in [5] was 500 to 600 nM each time.

Turning to `CC(C)(C)c1ccc(Cn2cc(COc3ccc4c(c3)CC[C@@H]3[C@@H]4CC[C@@]4(C)C(=O)CC[C@@H]34)nn2)cc1` [Compound 4b, 3-[{1-(4-tert-butylbenzyl)-1H-1,2,3-triazol-4-yl}methoxy]-13α-estra-1,3,5(10)-trien-17-one], the “influence on the growth of the tested cell lines” value in [6] was “did not have marked influence on the growth”.

On to `C[C@@]12CC[C@@H]3c4cc(Br)c(O)cc4CC[C@H]3[C@@H]1CCC2=O` [Compound 5], for which the half-maximal inhibitory concentration (IC50) in data set [7] is about 1000 nM.

Consider `C[C@@]12CC[C@@H]3c4ccc(O)c(Br)c4CC[C@H]3[C@@H]1CCC2=O` [Compound 6], for which, in [7], the IC50 is about 1000 nM. The STS inhibition result in data set [8] was “dual STS and 17β-HSD1 inhibition”.

As to `CCOP(=O)(OCC)c1cc2c(cc1O)CC[C@@H]1[C@@H]2CC[C@@]2(C)C(=O)CC[C@@H]12` [Compound 7], the half-maximal inhibitory concentration (IC50) in [7] and in [9] was 1000 to 2000 nM each time.

As to `CCOP(=O)(OCC)c1cc2c(cc1OCc1ccccc1)CC[C@@H]1[C@@H]2CC[C@@]2(C)C(=O)CC[C@@H]12` [Compound 8], the IC50 in [9] is 200 nM.

With `C[C@@]12CC[C@@H]3c4ccc(OCc5cn(Cc6ccccc6)nn5)c(Br)c4CC[C@H]3[C@@H]1CCC2=O` [Compound 12a, 3-[{1-benzyl-1H-1,2,3-triazol-4-yl}methoxy]-4-bromo-13α-estra-1,3,5(10)-trien-17-one], the melting point lay in the range of 188 to 190 °C. Also, the inhibition at 10 µM in data set [10] (MCF-7, 10 µM, 72 h, read-out: Inhibition (%) ± SEM) came to 42 ± 0.97%. Also, in [10] (MCF-7, 30 µM, 72 h, read-out: Inhibition (%) ± SEM), the inhibition at 30 µM is 52.5 ± 0.94%. In addition, the IC50 in [10] (MCF-7, 72 h, read-out: calculated IC50) is 12700 nM. For the same compound, the inhibition at 10 µM in data set [11] (MDA-MB-231, 10 µM, 72 h, read-out: Inhibition (%) ± SEM) came to 52.9 ± 1.32%. Besides, in data set [11] (MDA-MB-231, 30 µM, 72 h, read-out: Inhibition (%) ± SEM), the inhibition at 30 µM worked out at 53.8 ± 2.43%. For the same compound, the half-maximal inhibitory concentration (IC50) in data set [11] (MDA-MB-231, 72 h, read-out: calculated IC50) is 8800 nM. In addition, in data set [12] (NIH3T3, NIH/3T3, 10 µM, MTT, read-out: inhibition of cell growth), the inhibition at 10 µM worked out at 28.7 ± 1.26%. Moreover, in data set [12] (NIH3T3, NIH/3T3, 30 µM, MTT, read-out: inhibition of cell growth), the inhibition at 30 µM stood at 37.9 ± 0.75%. In data set [12] (NIH3T3, NIH/3T3, MTT), the IC50 was over 30000 nM. Further, the “maximum rate of tubulin polymerisation (Vmax)” value in [13] (125 µM test compound) is given as “increased”. For the same compound, in data set [13] (250 µM test compound), the “maximum rate of tubulin polymerisation (Vmax)” value is reported as “increased by our test compound which was significant”. Moreover, the inhibition at 10 µM in [14] (A2780, 10 µM, 72 h, read-out: Inhibition (%) ± SEM) worked out at 93.16 ± 0.47%. In addition, the inhibition at 30 µM in data set [14] (A2780, 30 µM, 72 h, read-out: Inhibition (%) ± SEM) is 95.43 ± 0.42%. Also, in data set [14] (A2780, 72 h, read-out: calculated IC50), the IC50 was 550 nM.

`CC(=O)O[C@H]1C(=O)[C@@]2(C)[C@H]([C@H](OC(=O)c3ccccc3)[C@]3(O)C[C@H](OC(=O)[C@H](O)[C@@H](NC(=O)c4ccccc4)c4ccccc4)C(C)=C1C3(C)C)[C@]1(OC(C)=O)CO[C@@H]1C[C@@H]2O` [Paclitaxel, reference compound]: the “increase in Vmax” value in [13] (10 µM paclitaxel, positive control) is listed as “threefold increase in Vmax”.

(Values after PMC7598997, “Synthesis and evaluation of anticancer activities of 2- or 4-substituted 3-(N-benzyltriazolylmethyl)-13α-oestrone derivatives” (Journal of Enzyme Inhibition and Medicinal Chemistry, 2020).)
